Marks after values point to notes of the source that are not given here.

Data set [1] relates to allergic contact dermatitis response in mice. Put plainly: Allergic contact dermatitis (TDI) model in mice, mouse ear swelling test. Type of data set: in vivo. The protocol: The anti-inflammatory and anti-allergic effects of compounds 1a and 1c were assessed in a mouse model of allergic contact dermatitis, a response driven primarily by T helper type 2 (Th2) cells. […] In this model, an allergic dermatitis response is obtained by sensitizing mice to TDI and subsequently challenging them with antigen by topical administration onto the ears. A quantitative assessment of anti-inflammatory and anti-allergic effects of topically or orally administered test compounds is possible by measuring the resulting ear swelling. The advantages of the allergic contact dermatitis model (Zöllner et al., Bioessays 26:693-6 (2004)) are reproducibility and reliability (>90% of BALB/c mice respond to sensitization), a short induction protocol, quantitative assessment by measuring ear thickness, atopic dermatitis-like skin lesions can be induced, and clinically relevant pharmaceuticals, such as corticosteroids, calcineurin-inhibitors and PDE4-inhibitors, are effective in this model.
Female BALB/c-mice were obtained from Charles River (Sulzfeld, Germany) at age 8 weeks. All animals were housed in groups of eight per cage at 22° C. with a 12 h light/dark-cycle, Water and a standard diet (Altromin, Lage/Lippe, Germany) were available ad libitum. All animals were acclimatized for one week before experimental procedures were commenced.
Experimental procedures for BALB/c mice housing, TDI sensitization and challenge, and measurement of ear thickness were performed as previously described (Baumer et al., J Pharm Pharmacol, 55:1107-1114 (2003)) with the following modifications. For active sensitization, 100 μL of 5% (w/v) TDI was administered to the shaved and stripped abdominal epidermis on day one, and for the next three consecutive days, 50 μL of 5% (My) TDI was applied. The allergic reaction was boosted 21 days later by application of 50 μL of 0.5% (w/v) TDI. For the examination of test compound effects, the left ears were used for the TDI challenge (20 μL of 0.5% in acetone) and ear thickness measured 3 h before and 24 h after challenge.
Group size was n=7 mice unless otherwise stated. Test compounds were freshly prepared before administration.
Administration time: to determine optimal time for administration treatment groups were treated orally by gavage with 100 mg/kg of compound 1a or 1c (suspended in 0.5% tylose, 10 mL/kg) 1, 4 or 16 h before topical TDI challenge. One group was treated with 100 mg/kg miltefosine orally, 16 h before challenge (based on available data for optimal administration time for miltefosine) and vehicle treated mice received tylose (10 mL/kg) orally, 4 h before challenge.
Dose-response: two groups of mice were treated orally with compound 1a at 25 mg/kg or 100 mg/kg suspended in 0.5% tylose, 4 h before topical TDI challenge. Vehicle treated mice received 0.5% tylose orally 4 h before challenge. As a positive control, dexamethasone was administered in saline solution at 1 mg/kg or 3 mg/kg, 2 h and 30 min before challenge and 1 h after challenge. The dose and dosing scheme for dexamethasone was based on previous experience showing a maximal effect in this model.
Compound 1a was administered to two groups of mice topically in 20 μl of a 2% or 6% solution in propyleneglycol. The suspension was heated to 60° C. and mixed using a thermomixer (Eppendorf) until it became clear. The solution was applied, 2 h before topical TDI challenge by administration of 10 μl onto each of the inner and outer surfaces of the left ears. A vehicle group (17=5) was treated with propyleneglycol. As a positive control, diflorasone, diacetate was administered at 0.01% (low dose) and 0.05% (high dose) in 20 μl acetone, 2 h before challenge. A basal control group was left untreated.
Mean and standard error of the mean (SEM) were calculated from individual ear edema values. […]

Data set [2] relates to local lymph node reaction. The data set can be described thus: Local lymph node weight and cell count after TDI challenge. Type of data set: in vivo, mice. To be noted: topical 1a 2% or 6%, diflorasone 0.1% and 0.5%. The protocol:
Directly after sacrifice, the ear draining lymph node (Ln. auricularis) was prepared and excised. Organ weight was determined by means of an analytical balance (Kern, Balingen, Germany). Single cell suspensions were prepared by means of a glass potter (VWR, Darmstadt, Germany) and cells were counted with a hemocytometer (Neubauer, VWR, Germany).
One of the most undesirable side-effects of corticosteroid administration is immunosuppression, which leads to the inability to effectively address parasitic infection, wound healing and tumor growth. In the current study, the local lymph node reaction after TDI challenge (lymph node weight and cell number) was determined to assess the response of immune organs.

The test system of data set [3] is allergic contact dermatitis response in mice. Put plainly: Allergic contact dermatitis (TDI) model in mice, mouse ear swelling test. It counts as in vivo. To be noted: topical, 0.5% in 20 μl acetone, 2 h before challenge.

Take `CC(=O)OCC(=O)[C@@]1(OC(C)=O)[C@@H](C)C[C@H]2[C@@H]3C[C@H](F)C4=CC(=O)C=C[C@]4(C)[C@@]3(F)[C@@H](O)C[C@@]21C` [Diflorasone, diflorasone diacetate, reference compound]: the “effect on ear swelling (in words)” value in data set [1] (topical positive control, ear thickness reduced below level of untreated mice) is listed as “completely eliminated ear swelling”. In addition, the “Inhibition of mouse ear swelling” value in data set [1] (topical, 0.1% in 20 μl acetone, 2 h before challenge) is 101.1*** %; in data set [3], 110.8*** %. Besides, the “local lymph node reaction (lymph node weight and cell number)” value in data set [2] is reported as “completely inhibiting the increase”.

Values taken from patent US11453642B2, “Oxygenated amino- or ammonium-containing sulfonic acid, phosphonic acid and carboxylic acid derivatives and their medical use” (GRI BIO, INC., priority 2011, dated 2022).
